SMILES strings stand for the structures.

The subject of this experiment is HT-29 cells. Description: HT29 Cells 0FBS Assay In Vitro (TNF-α/SMAC mimetic/zVAD-FMK induced necroptosis, CellTiter-Glo cell viability). It is filed as cell-based. As to conditions: Homo sapiens; HT-29 cells, FBS free medium, TNF-α (10 ng/ml), SMAC mimetic (6 uM), zVAD-FMK (10 μM), 20 hours; geometric mean EC50; read-out: Cell activity (EC50) of Compounds 1-116. The essentials:
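HT-29 cells (5,000/well, seeded overnight) in serum-free McCoy's 5A were stimulated with TNF-α 10 ng/ml, SMAC mimetic 6 μM and zVAD-FMK 10 μM to induce necroptosis. Compound added as 10-point 3-fold series for 20 h at 37° C. CellTiter-Glo luminescence gives viability; EC50 is geometric mean of duplicate dose-responses.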
In general terms: ATP-based viability assays read luminescence as a measure of living cells.
Consider `CNC(=O)Cn1nc(C)c(-c2ncc(F)c(OC3CN(C(=O)N4N=CC[C@H]4c4cc(F)cc(F)c4)C3)n2)c1C` [compound 98, (S)-2-(4-(4-((1-(5-(3,5-difluorophenyl)-4,5-dihydro-1H-pyrazole-1-carbonyl)azetidin-3-yl)oxy)-5-fluoropyrimidin-2-yl)-3,5-dimethyl-1H-pyrazol-1-yl)-N-methylacetamide], for which the EC50 (as a rule, the concentration giving half of the maximal effect) lay within 0.0001 to 0.1 µM.

As to `Cc1nn(CC(N)=O)c(C)c1-c1ncc(F)c(OC2CN(C(=O)N3N=CC[C@H]3c3cc(F)cc(F)c3)C2)n1` [compound 99, (S)-2-(4-(4-((1-(5-(3,5-difluorophenyl)-4,5-dihydro-1H-pyrazole-1-carbonyl)azetidin-3-yl)oxy)-5-fluoropyrimidin-2-yl)-3,5-dimethyl-1H-pyrazol-1-yl)acetamide], the EC50 fell in the range of 0.0001 to 0.1 µM.

For `Cc1nn(CC(=O)N(C)C)c(C)c1-c1ncc(F)c(OC2CN(C(=O)N3N=CC[C@H]3c3cc(F)cc(F)c3)C2)n1` [compound 100, (S)-2-(4-(4-((1-(5-(3,5-difluorophenyl)-4,5-dihydro-1H-pyrazole-1-carbonyl)azetidin-3-yl)oxy)-5-fluoropyrimidin-2-yl)-3,5-dimethyl-1H-pyrazol-1-yl)-N,N-dimethylacetamide], the EC50 lay in the range of 0.0001 to 0.1 µM.

Consider `Cc1c(N)nn(C)c1-c1cc(OC2CN(C(=O)N3N=CC[C@H]3c3cc(F)cc(F)c3)C2)c(F)cn1` [compound 101, (S)-(3-((2-(3-amino-1,4-dimethyl-11H-pyrazol-5-yl)-5-fluoropyridin-4-yl)oxy)azetidin-1-yl)(5-(3,5-difluorophenyl)-4,5-dihydro-1H-pyrazol-1-yl)methanone], for which the EC50 was 0.0001 to 0.1 µM.

On to `Cc1cccn1-c1ncc(F)c(OC2CN(C(=O)N3N=CC[C@H]3c3cc(F)cc(F)c3)C2)n1` [compound 102, (S)-(5-(3,5-difluorophenyl)-4,5-dihydro-1H-pyrazol-1-yl)(3-((5-fluoro-2-(2-methyl-1H-pyrrol-1-yl)pyrimidin-4-yl)oxy)azetidin-1-yl)methanone], for which the EC50 lay within 0.0001 to 0.1 µM.

As to `Cc1nc(C)n(-c2ncc(F)c(OC3CN(C(=O)N4N=CC[C@H]4c4cc(F)cc(F)c4)C3)n2)n1` [compound 103, (S)-(5-(3,5-difluorophenyl)-4,5-dihydro-1H-pyrazol-1-yl)(3-((2-(3,5-dimethyl-1H-1,2,4-triazol-1-yl)-5-fluoropyrimidin-4-yl)oxy)azetidin-1-yl)methanone], the EC50 lay in the range of 0.0001 to 0.1 µM.

As for `Cc1nc(C)n(-c2cc(OC3CN(C(=O)N4N=CC[C@H]4c4cc(F)cc(F)c4)C3)c(F)cn2)n1` [compound 104, (S)-(5-(3,5-difluorophenyl)-4,5-dihydro-1H-pyrazol-1-yl)(3-((2-(3,5-dimethyl-1H-1,2,4-triazol-1-yl)-5-fluoropyridin-4-yl)oxy)azetidin-1-yl)methanone], the EC50 lay in the range of 0.0001 to 0.1 µM.

Regarding `Cc1nccn1-c1ncc(F)c(OC2CN(C(=O)N3N=CC[C@H]3c3cc(F)cc(F)c3)C2)n1` [compound 105, (S)-(5-(3,5-difluorophenyl)-4,5-dihydro-1H-pyrazol-1-yl)(3-((5-fluoro-2-(2-methyl-1H-imidazol-1-yl)pyrimidin-4-yl)oxy)azetidin-1-yl)methanone], the EC50 fell in the range of 0.0001 to 0.1 µM.

As for `N#Cc1cccn1-c1ncc(F)c(OC2CN(C(=O)N3N=CC[C@H]3c3cc(F)cc(F)c3)C2)n1` [compound 106, (S)-1-(4-((1-(5-(3,5-difluorophenyl)-4,5-dihydro-1H-pyrazole-1-carbonyl)azetidin-3-yl)oxy)-5-fluoropyrimidin-2-yl)-1H-pyrrole-2-carbonitrile], the EC50 fell in the range of 0.0001 to 0.1 µM.

`NC(=O)c1cccn1-c1ncc(F)c(OC2CN(C(=O)N3N=CC[C@H]3c3cc(F)cc(F)c3)C2)n1` [compound 107, (S)-1-(4-((1-(5-(3,5-difluorophenyl)-4,5-dihydro-1H-pyrazole-1-carbonyl)azetidin-3-yl)oxy)-5-fluoropyrimidin-2-yl)-1H-pyrrole-2-carboxamide]: the EC50 fell in the range of 0.0001 to 0.1 µM.

Source of the values: US12655125B2 (SIRONAX LTD., priority 2020, dated 2026).
